Laboratory results reported in patent US20140243351A1, “DRUG FOR THE TREATMENT OF ALLERGIC RHINITIS COMPRISING PGD2 ANTAGONIST AND HISTAMINE ANTAGONIST” (Shionogi & Co., Ltd., priority 2011, published 2014).
Where two headings read alike, the source gives them in different places. Marks after values point to notes of the source that are not given here.

What was measured:
[1] = tested on: guinea pig rhinitis model; test: Evaluation Test 1, guinea pig rhinitis model (OVA), nasal airway resistance, Formula (I) + fexofenadine hydrochloride; assay type: in vivo; conditions: single, 20 minutes after OVA challenge
Description: Guinea pig rhinitis models were generated by causing rhinitis-inflammation in 5 to 6 week-old male Harley guinea pigs in the following manner. Concretely, on day 0, the guinea pigs were intraperitoneally administered with cyclophosphamide diluted with physiological saline at 30 mg/kg. Two days later (on day 2), a mixed solution of aluminum hydroxide gel (10 mg), ovalbumin (OVA) (1 mg) and physiological saline was intraperitoneally administered to establish active sensitization. Thereafter, on day 9, a 1% OVA solution dissolved in physiological saline was intranasally challenged by 20 μL each to both the nostrils. Further, on day 16, a 2% OVA solution dissolved in physiological saline was intranasally challenged by 10 μL each to both the nostrils, thereby generating guinea pig rhinitis models that caused rhinitis-inflammation. Here, a control group that serves as a control was intranasally challenged by physiological saline in place of intranasally challenging by the OVA solution.
Specifically, prepared were the following: […]
Next, on day 23, a test substance listed in Table 7 was orally administered using a 0.5% methylcellulose (MC) solution as a medium, and one hour thereafter a 2% OVA solution dissolved in physiological saline was intranasally challenged by 10 μL each to both the nostrils (Group 1 was intranasally challenged by physiological saline in place of intranasal challenge by the OVA solution), and the nasal airway resistance was evaluated and analyzed. […] Here, nasal airway resistance (nRaw) is an average of specific airway resistance (sRaw) of 200 times or more breathing, and the analyzed values used in the comparisons of pharmacological efficacy are expressed as a percent change based on the nasal airway resistance measured before the intranasal challenge (100%) (IAR: immediately airway response). In addition, the between-group comparison was carried out according to one-sided t test, and the suppression percentage to Group 2 (Vehicle Group) was calculated by the following formula: […]

[2] = tested on: guinea pig rhinitis model induced with PGD2 and histamine; test: Evaluation Test 3, guinea pig rhinitis model induced with PGD2 and histamine, nasal airway resistance; assay type: in vivo; conditions: oral, each agent at 10 mg/kg; about 10 minutes after PGD2 + histamine challenge
From the text: The pharmacological efficacy evaluation was made using 9 to 12 week-old male Harley guinea pigs in the following manner. Specifically, the guinea pigs were divided into the following groups: Group 1: Control Group (a group administered with a medium alone to a guinea pig); […] [table]

[3] = tested on: patients with seasonal allergic rhinitis; test: Evaluation test on pharmacological efficacy on patients with seasonal allergic rhinitis (daytime nasal symptom scores)
Description: Each of the groups was asked to take each preparation in accordance with the following medication schedule. Thereafter, each of the patients was daily evaluated on daytime nasal symptoms, e.g. sneezing attacks, nasal discharge, nasal congestion, and nasal itching, in accordance with the following evaluation criteria. The results were analyzed. The lower the nasal symptom scores, more alleviated the nasal symptoms.
The medication was scheduled for a total of about 6 to 18 weeks, including a screening period of from 0 days to 12 weeks, a placebo introducing period of from 4 to 7 days, an ingestion period for each preparation of 4 weeks, and a post-observation period of 1 week.
Here, the evaluation criteria for sneezing, nasal discharge, and nasal congestion were conducted in 5-ranks from scores 0 to 4, and the evaluation criterion for nasal itching was conducted in 4-ranks of scores 0 to 3.
As to the nasal symptoms evaluated by each patient, average scores/day at time points 1, 2, 3, and 4 weeks after the administration, and the week just before the administration (for example, at a time point of 2 weeks after the administration refers to a one-week period from one week after the administration to the second week) were calculated, and changes since the start of the test were calculated and used in analysis. Here, in the between-group comparison distribution of the background factors, Fisher's exact test was used for nominal scale data, and Kruskal-Wallis test was used for continuous data or ordinal scale data. In both tests, the significance levels were set at 0.15 on both sides. In the analyses of nasal symptom items, the between-group comparison according to covariance analysis of an average change after two weeks from the administration, the between-group comparison according to covariance analysis of a change on a weekly basis, the between-group comparison of a change on a weekly basis using a linear model, and the between-group comparison according to chi-square test of improvement rate on a weekly basis were conducted. In all the comparisons, the significance level was set at 0.05 on both sides. In addition, as to the changes of nasal symptoms on a weekly basis, the between-group comparison according to covariance analysis for changes on a weekly basis using a linear model was conducted. Further, the between-group comparison according to chi-square test of improvement rate of each of the daytime nasal symptoms on a weekly basis was conducted. In the covariance analysis for a change on a weekly basis, in cases where data each week were not measured, the data were supplemented according to Last Observation Carried Forward (LOCF) method.

[4] = tested on: seasonal allergic rhinitis patients; conditions: after two weeks, cited from earlier work; for change in nasal symptom scores per symptom from the placebo group: sneezing, nasal discharge, nasal congestion, nasal itching
[5] = tested on: seasonal allergic rhinitis patients; test: Clinical test (Ph 2, protocol 077) on seasonal allergic rhinitis, Non-Patent Publication 1; assay type: in vivo, human; conditions: beclomethasone versus loratadine, change per symptom from placebo
From the text: For example, Journal of Asthma, 46, 878-883, 2009 (Non-Patent Publication 1) describes clinical test results (Ph 2, protocol 077) on seasonal allergic rhinitis for a patient group administered with montelukast as an LT receptor antagonist, a patient group administered with loratadine as a histamine H1 receptor antagonist, and a patient group administered with beclomethasone as an intranasal steroid (see Table 3 in the publication). Here, the nasal symptoms, i.e. sneezing, nasal discharge, nasal congestion, and nasal itching, after two weeks since the start of the oral administration are scored to be evaluated.
Furthermore, Table 3 of Non-Patent Publication 1 describes clinical test results on seasonal allergic rhinitis for an intranasal steroid agent beclomethasone and a histamine H1 receptor antagonist loratadine. According to the publication, it can be seen that a change in scores of nasal symptoms, i.e. sneezing, nasal discharge, nasal congestion, and nasal itching, after two weeks since the start of the oral administration, per symptom from the placebo group is such that the change in a loratadine group is 0.31, i.e. a difference between 0.53 and 0.22, and that the change in a beclomethasone group is 0.48, i.e. a difference between 0.70 and 0.22. In other words, it can be seen that the intranasal steroid agent was 1.55 times effective of the histamine H1 receptor antagonist. […]

[6] = tested on: seasonal allergic rhinitis patients; conditions: after two weeks; cited from earlier work
[7] = tested on: seasonal allergic rhinitis patients; conditions: after two weeks; montelukast 10 mg, loratadine 10 mg, combination 10 mg each; cited from earlier work
[8] = after two weeks from administration

CC(C)(C(=O)O)c1ccc(C(O)CCCN2CCC(C(O)(c3ccccc3)c3ccccc3)CC2)cc1.Cl (racemic) [fexofenadine hydrochloride, (±)-2-{4-[1-hydroxy-4-[4-(hydroxydiphenylmethyl)piperidino]butyl]phenyl}-2-methylpropanoic acid monohydrochloride]
suppression percentage of nasal airway resistance increase ([1]; Group 5, fexofenadine hydrochloride 20 mg/kg oral): 15%

Cl.Cl.O=C(O)COCCN1CCN(C(c2ccccc2)c2ccc(Cl)cc2)CC1 (racemic) [Cetirizine Hydrochloride, 2-(2-{4-[(RS)-(4-chlorophenyl)phenylmethyl]piperazin-1-yl}ethoxy)acetic acid dihydrochloride]
suppression percentage of nasal airway resistance increase [2]: 20%
Change in Nasal Congestion Scores, Difference with Placebo Group [3, 8]: −0.13
Change in Nasal Discharge Scores, Difference with Placebo Group [3, 8]: −0.31**
Change in Nasal Itching Scores, Difference with Placebo Group [3, 8]: −0.28**
Change in Sneezing Scores, Difference with Placebo Group [3, 8]: −0.34***
Change in Total of Three Nasal Symptom Scores, Difference with Placebo Group ([3]; after two weeks from administration, dihydrochloride): −0.73**
Change in Total of Three Nasal Symptom Scores, Difference with Placebo Group ([3]; after two weeks from administration, listed as cetirizine, dihydrochloride): 0.73
change per symptom (total of three nasal symptom scores, from the placebo group) ([3]; after two weeks, worked out from Table 2): 0.24

C[C@H]1C[C@H]2[C@@H]3CCC4=CC(=O)C=C[C@]4(C)[C@@]3(Cl)[C@@H](O)C[C@]2(C)[C@@]1(O)C(=O)CO [beclomethasone]
change in nasal symptom scores per symptom since the start of the administration [4]: 0.70
change in nasal symptom scores per symptom from the placebo group [4]: 0.48
effect of intranasal steroid agent relative to histamine H1 receptor antagonist [5]: 1.55 times

CCOC(=O)N1CCC(=C2c3ccc(Cl)cc3CCc3cccnc32)CC1 [loratadine, ethyl 4-(8-chloro-5,6-dihydro-11H-benzo[5,6]cyclohepta[1,2-b]pyridin-11-ylidene)-1-piperidinecarboxylate]
change per symptom of the nasal symptom scores since the start of the administration [6]: 0.40
change per symptom of the nasal symptom scores, based on the placebo group [6]: 0.09
change per symptom of the nasal symptom scores since the start of the administration [7]: 0.34
change per symptom of the nasal symptom scores, based on the placebo group [7]: 0.09
change in nasal symptom scores per symptom since the start of the administration [4]: 0.53
change in nasal symptom scores per symptom from the placebo group [4]: 0.31

CC(C)Oc1ccc(S(=O)(=O)N2CCN(c3ccc(-c4ncco4)c(OCC(=O)O)c3)CC2)cc1 [Formula (I), [2-(oxazol-2-yl)-5-(4-{4-[(propan-2-yl)oxy]phenylsulfonyl}piperazin-1-yl)phenoxy]acetic acid]
suppression percentage of nasal airway resistance increase [2]: 32%
Change in Nasal Congestion Scores, Difference with Cetirizine Hydrochloride Group [3, 8]: −0.03
Change in Nasal Congestion Scores, Difference with Placebo Group [3, 8]: −0.16*
Change in Nasal Discharge Scores, Difference with Cetirizine Hydrochloride Group [3, 8]: 0.13
Change in Nasal Discharge Scores, Difference with Placebo Group [3, 8]: −0.19**
Change in Nasal Itching Scores, Difference with Cetirizine Hydrochloride Group [3, 8]: 0.21**
Change in Nasal Itching Scores, Difference with Placebo Group [3, 8]: −0.06
Change in Sneezing Scores, Difference with Cetirizine Hydrochloride Group [3, 8]: 0.23**
Change in Sneezing Scores, Difference with Placebo Group [3, 8]: −0.11
Change in Total of Three Nasal Symptom Scores, Difference with Cetirizine Hydrochloride Group [3, 8]: 0.28
Change in Total of Three Nasal Symptom Scores, Difference with Placebo Group [3, 8]: −0.45*
suppression percentage of nasal airway resistance increase ([1]; Group 3, Formula (I) 1 mg/kg oral): 21%
suppression percentage of nasal airway resistance increase ([1]; Group 4, Formula (I) 10 mg/kg oral): 47%
